The source of these data is patent US5328909A, “Cyclopropenone derivatives” (Mitsubishi Kasei Corporation, priority 1991, dated 1994).

pIC50: −log10 of the molar value. Where a name gives a salt, the structure may show the parent alone.

One may read the pIC50 as the IC50 on a negative log10 scale, so that one unit is a factor of ten.

In the assay the target is T1, m-calpain (Rattus norvegicus, UniProt Q07009).
T1 construct: m-calpain was purified from rat brain; from tissue; host or cells: rat brain
T1 sequence (Q07009 20-700 limits assumed): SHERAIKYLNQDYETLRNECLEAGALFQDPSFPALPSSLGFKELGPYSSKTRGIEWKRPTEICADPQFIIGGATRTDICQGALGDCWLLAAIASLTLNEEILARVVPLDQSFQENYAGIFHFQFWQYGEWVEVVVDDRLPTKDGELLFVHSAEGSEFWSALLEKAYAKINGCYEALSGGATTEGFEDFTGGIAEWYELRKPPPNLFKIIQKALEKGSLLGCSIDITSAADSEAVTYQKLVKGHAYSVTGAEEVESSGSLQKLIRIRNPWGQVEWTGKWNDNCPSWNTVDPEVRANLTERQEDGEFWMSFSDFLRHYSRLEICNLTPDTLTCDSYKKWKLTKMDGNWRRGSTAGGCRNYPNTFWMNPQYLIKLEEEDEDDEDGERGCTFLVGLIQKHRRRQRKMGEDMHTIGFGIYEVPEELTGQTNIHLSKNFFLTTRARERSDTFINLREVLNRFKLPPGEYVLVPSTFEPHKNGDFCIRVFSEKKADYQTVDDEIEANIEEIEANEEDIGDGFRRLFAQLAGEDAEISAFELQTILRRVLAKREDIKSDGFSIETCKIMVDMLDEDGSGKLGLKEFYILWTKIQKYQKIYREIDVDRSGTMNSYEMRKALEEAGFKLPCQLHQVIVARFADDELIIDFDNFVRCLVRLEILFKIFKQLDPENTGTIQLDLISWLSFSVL
T1 sequence (Q64537 1-270 partner): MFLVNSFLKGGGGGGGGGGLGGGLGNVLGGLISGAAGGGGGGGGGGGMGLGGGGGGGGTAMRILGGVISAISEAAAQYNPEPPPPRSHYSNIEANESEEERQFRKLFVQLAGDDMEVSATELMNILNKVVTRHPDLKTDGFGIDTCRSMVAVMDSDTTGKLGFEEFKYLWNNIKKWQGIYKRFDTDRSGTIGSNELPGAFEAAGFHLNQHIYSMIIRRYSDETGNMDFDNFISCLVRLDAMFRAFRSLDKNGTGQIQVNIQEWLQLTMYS
Briefly: Thiol protease inhibitory activity against m-calpain purified from rat brain. Format: biochemical. The note with it: Table 4; rat brain enzyme; read-out: Inhibitory activity against m-calpain IC50. On the procedure:
Inhibitory activity against papain (P-3125, Sigma) and cathepsin B (C-6286, Sigma) was assayed according to the method described in a literature [Biochemical Journal, 201, 189 (1982)]. Capthesin L was purified from rat kidney according to the method in a literature [Journal of Biochemistry, 100, 35 (1986)], and the inhibitory activity against it was assayed in the same manner as described in the above literature for cathepsin B. Further, m-calpain was purified from rat brain according to a known method [Journal of Biological Chemistry, 254, p.3210 (1984)] and the inhibitory activity against it was assayed by a method described in a literature [Journal of Biological Chemistry, 259, 12489 (1984)]. The results are showing in Tables 3 and 4. It is evident from Tables 3 and 4 that the compounds in the present invention have a potent inhibitory activity against thiol proteases such as papain, cathepsin B, cathepsin L, m-calpain or the like.
Consider `CC(C)C[C@H](NC(=O)CCS(=O)(=O)c1ccccc1)C(=O)N[C@@H](C(C)C)[C@@H](O)c1c(-c2ccccc2)c1=O` [57 (No. 170)], for which the pIC50 is 5.51. The result for `CC(C)C[C@H](NC(=O)c1c(F)cccc1F)C(=O)N[C@@H](C(C)C)[C@@H](O)c1c(-c2ccccc2)c1=O` [59 (No. 175), 2-[(1S, 2S)-2-{(S)-2-(2,6-difluorobenzoylamino)-4-methylvalerylamino}-1-hydroxy-3-methylbutyl]-3-phenylcyclopropenone] reads 5.80. The result for `CC(C)C[C@H](NC(=O)c1ccccc1Cl)C(=O)N[C@@H](C(C)C)[C@@H](O)c1c(-c2ccccc2)c1=O` [60 (No. 178), 2-[(1S, 2S)-2-{(S)-2-(2-chlorobenzoylamino)-4-methylvalerylamino}-hydroxy-3-methylbutyl]-3-phenylcyclopropenone] reads 5.96; that for `CC(C)C[C@H](NC(=O)c1ccc(Cl)cc1)C(=O)N[C@@H](C(C)C)[C@@H](O)c1c(-c2ccccc2)c1=O` [62 (No. 180), 2-[(1S, 2S)-2-{(S)-2-(4-chlorobenzoylamino)-4-methylvalerylamino}-1-hydroxy-3-methylbutyl]-3-phenylcyclopropenone], 5.85; that for `Cc1ccccc1C(=O)N[C@@H](CC(C)C)C(=O)N[C@@H](C(C)C)[C@@H](O)c1c(-c2ccccc2)c1=O` [63 (No. 184), 2-[(1S, 2S)-1-hydroxy-3-methyl-2-{(S)-4-methyl-2-(2-toluoylamino)valerylamino}butyl]-3-phenylcyclopropenone], 5.80.

As to `COC(=O)c1ccc(C(=O)N[C@@H](CC(C)C)C(=O)N[C@@H](C(C)C)[C@@H](O)c2c(-c3ccccc3)c2=O)cc1` [65 (No. 191), 2-[(1S, 2S)-1-hydroxy-2-{(S)-2-(4-methoxycarbonylbenzoylamino)-4-methylvalerylamino}-3-methylbutyl]-3-phenylcyclopropenone], the pIC50 is 5.74. Regarding `CC(C)C[C@H](NC(=O)c1ccco1)C(=O)N[C@@H](C(C)C)[C@@H](O)c1c(-c2ccccc2)c1=O` [67 (No. 197), 2-[(1S, 2S)-2-{(S)-2-(2-furoylamino)-4-methylvalerylamino}-1-hydroxy-3-methylbutyl]-3-phenylcyclopropenone], the pIC50 was 6.06. For the compound `CC(C)C[C@H](NC(=O)c1cccs1)C(=O)N[C@@H](C(C)C)[C@@H](O)c1c(-c2ccccc2)c1=O` [68 (No. 200), 2-[(1S, 2S)-1-hydroxy-3-methyl-2-{(S)-4-methyl-2-(2-thenoylamino)valerylamino}butyl]-3-phenylcyclopropenone], the pIC50 was 5.51. The result for `Cc1cc(C(=O)N[C@@H](CC(C)C)C(=O)N[C@@H](C(C)C)[C@@H](O)c2c(-c3ccccc3)c2=O)n(C)n1` [69 (No. 203), 2-[(1S, 2S)-2-{(S)-2-(1,3-dimethyl-5-pyrazolylcarbonylamino)-4-methylvalerylamino}-1-hydroxy-3-methylbutyl]-3-phenylcyclopropenone] reads 5.52. With `CC(C)C[C@H](NC(=O)c1cccnc1)C(=O)N[C@@H](C(C)C)[C@@H](O)c1c(-c2ccccc2)c1=O` [71 (No. 209), 2-[(1S, 2S)-1-hydroxy-3-methyl-2-((S)-4-methyl-2-nicotinoylaminovalerylamino)butyl]-3-phenylcyclopropenone], the negative logarithm of the IC50 (pIC50) was 5.89.

Consider `CC(C)C[C@H](NC(=O)c1ccncc1)C(=O)N[C@@H](C(C)C)[C@@H](O)c1c(-c2ccccc2)c1=O` [72 (No. 213), 2-[(1S, 2S)-1-hydroxy-2-((S)-2-isonicotinoylamino-4-methylvalerylamino)-3-methylbutyl]-3-phenylcyclopropenone], for which the pIC50 is 6.40. Turning to `CC(C)C[C@H](NC(=O)c1ccnc(Cl)c1)C(=O)N[C@@H](C(C)C)[C@@H](O)c1c(-c2ccccc2)c1=O` [73 (No. 216), 2-[(1s, 2S)-2-{(S)-2-(2-chloroisonicotinoylamino)-4-methylvalerylamino}-1-hydroxy-3-methylbutyl]-3-phenylcyclopropenone], the pIC50 was 5.85. For the compound `CC(C)C[C@H](NC(=O)c1ccc2ccccc2n1)C(=O)N[C@@H](C(C)C)[C@@H](O)c1c(-c2ccccc2)c1=O` [74 (No. 219), 2-[(1S, 2S)-1-hydroxy-3-methyl-2-{(S)-4-methyl-2-(2-quinolylcarbonylamino)valerylamino}butyl-3-phenylcyclopropenone hydrochloride], the pIC50 is 6.10. As for `CC(C)C[C@H](NC(=O)NCc1ccccc1)C(=O)N[C@@H](C(C)C)[C@@H](O)c1c(-c2ccccc2)c1=O` [75 (No. 225), 2-[(1S, 2S)-2-{(S)-2-(3-benzylureido)-4-methylvalerylamino}-1-hydroxy-3-methylbutyl]-3-phenylcyclopropenone], the pIC50 was 5.48. The result for `CC(C)C[C@H](NC(=O)Nc1ccccc1)C(=O)N[C@@H](C(C)C)[C@@H](O)c1c(-c2ccccc2)c1=O` [76 (No. 227)] reads 5.34. Regarding `CCCS(=O)(=O)N[C@@H](CC(C)C)C(=O)N[C@@H](C(C)C)[C@@H](O)c1c(-c2ccccc2)c1=O` [77 (No. 232), 2-[(1S, 2S)-1-hydroxy-3-methyl-2-((S)-4-methyl-2-propylsulfonylaminovalerylamino)butyl]-3-phenylcyclopropenone], the pIC50 was 6.02. The result for `CC(C)C[C@H](NS(=O)(=O)Cc1ccccc1)C(=O)N[C@@H](C(C)C)[C@@H](O)c1c(-c2ccccc2)c1=O` [78 (No. 237), 2-[(1S, 2S)-2-((S)-2-benzylsulfonylamino-4-methylvalerylamino)-1-hydroxy-3-methylbutyl]-3-phenylcyclopropenone] reads 6.36; that for `CC(C)C[C@H](NS(=O)(=O)Cc1ccccc1)C(=O)N[C@@H](C(C)C)[C@H](O)c1c(-c2ccccc2)c1=O` [79 (No. 237), 2-[(1R, 2S)-2-((S)-2-benzylsulfonylamino-4-methylvalerylamino)-1-hydroxy-3-methylbutyl]-3-phenylcyclopropenone], 5.74; that for `CC(C)C[C@H](NS(=O)(=O)c1ccccc1)C(=O)N[C@@H](C(C)C)[C@@H](O)c1c(-c2ccccc2)c1=O` [80 (No. 239), 2-[(1S, 2S)-1-hydroxy-3-methyl-2-((S)-4-methyl-2-phenylsulfonylaminovalerylamino)butyl]-3-phenylcyclopropenone], 6.46. For the compound `CC(C)C[C@H](NS(=O)(=O)c1ccccc1)C(=O)N[C@@H](C(C)C)[C@H](O)c1c(-c2ccccc2)c1=O` [81 (No. 239), 2-[(1R, 2S)-1-hydroxy-3-methyl-2-((S)-4-methyl-2-phenylsulfonylaminovalerylamino)butyl]-3-phenylcyclopropenone], the negative-log IC50 (pIC50) was 5.37.

`CC(C)C[C@H](NS(=O)(=O)c1ccc(F)cc1)C(=O)N[C@@H](C(C)C)[C@@H](O)c1c(-c2ccccc2)c1=O` [83 (No. 245), 2-[(1S, 2S)-2-{(S)-2-(4-fluorophenylsulfonylamino)-4-methylvalerylamino}-1-hydroxy-3-methylbutyl]-3-phenylcyclopropenone]: the negative-log IC50 (pIC50) is 5.52. The result for `CC(C)C[C@H](NS(=O)(=O)c1ccccc1Cl)C(=O)N[C@@H](C(C)C)[C@@H](O)c1c(-c2ccccc2)c1=O` [84 (No. 246), 2-[(1S, 2S)-2-{(S)-2-(2-chlorophenylsulfonylamino)-4-methylvalerylamino}-1-hydroxy-3-methylbutyl]-3-phenylcyclopropenone] reads 6.07; that for `CC(C)C[C@H](NS(=O)(=O)c1ccc(Cl)cc1)C(=O)N[C@@H](C(C)C)[C@@H](O)c1c(-c2ccccc2)c1=O` [85 (No. 248), 2-[(1S, 2S)-2-{(S)-2-(4-chlorophenylsulfonylamino)-4-methylvalerylamino}-1hydroxy-3-methylbutyl]-3-phenylcyclopropenone], 6.08; that for `Cc1ccc(S(=O)(=O)N[C@@H](CC(C)C)C(=O)N[C@@H](C(C)C)[C@@H](O)c2c(-c3ccccc3)c2=O)cc1` [86 (No. 251), 2-[(1S, 2S)-1-hydroxy-3-methyl-2-{(S)-4-methyl-2-(4-trisulfonylamino)valerylamino}butyl]-3-phenylcyclopropenone], 6.12.
